PMC13286573, “Exploration of precision coregulator TR-FRET identifies diverse signatures for LXR ligands relevant to discovery of nonlipogenic ABCA1 inducers” (eLife, 2026)
One block for each compound: values may come before it.

Assays:
LXRα [1] = target: T1, LXRα (Homo sapiens, UniProt Q13133); assay: SMRT2 corepressor binding to LXRα, CRT; assay type: biochemical; set-up: The CRT selectivity assay incorporates GST-tagged LXR-LBD; purchased Thermo Fisher Scientific PV4657; conditions: for activity at 1 µM: ligand 1 µM, interpolated from concentration-response, normalized, heat map Figure 9A, read-out: SMRT2α, relative % activity at 1 μM
T1 sequence (Q13133 209-447 limits assumed): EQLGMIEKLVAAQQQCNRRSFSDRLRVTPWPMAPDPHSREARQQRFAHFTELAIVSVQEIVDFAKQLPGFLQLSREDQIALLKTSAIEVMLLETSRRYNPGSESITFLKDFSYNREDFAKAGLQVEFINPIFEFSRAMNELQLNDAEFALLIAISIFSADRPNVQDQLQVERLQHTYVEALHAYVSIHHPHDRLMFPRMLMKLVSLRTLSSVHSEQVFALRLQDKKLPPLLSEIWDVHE

LXRβ [2] = target: T2, LXRβ (Homo sapiens, UniProt P55055); assay: NCOR2 corepressor binding to LXRβ, CRT; assay type: biochemical; set-up: The CRT selectivity assay incorporates GST-tagged LXR-LBD; purchased Thermo Fisher Scientific PV4660; conditions: for Effect on NCOR2 binding to LXRβ: monoplex CRT, absence of SRC1; for activity at 1 µM: read-out: NCOR2β, relative % activity at 1 μM
T2 sequence (P55055 222-460 limits assumed): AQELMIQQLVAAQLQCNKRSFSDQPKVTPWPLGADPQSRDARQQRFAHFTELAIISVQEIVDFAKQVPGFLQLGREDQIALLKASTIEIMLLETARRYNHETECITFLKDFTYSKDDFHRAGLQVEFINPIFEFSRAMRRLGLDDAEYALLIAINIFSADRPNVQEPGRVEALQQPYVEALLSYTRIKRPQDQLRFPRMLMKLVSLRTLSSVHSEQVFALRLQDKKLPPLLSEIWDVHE

LXRα [3] = target: T1, LXRα; set-up: The CRT selectivity assay incorporates GST-tagged LXR-LBD; purchased Thermo Fisher Scientific PV4657; method as in Albers et al., 2006; conditions: >1 µM; ref Albers et al., 2006; cited from earlier work
LXRβ [4] = target: T2, LXRβ; assay: SMRT2 corepressor binding to LXRβ, CRT; assay type: biochemical; set-up: The CRT selectivity assay incorporates GST-tagged LXR-LBD; purchased Thermo Fisher Scientific PV4660; conditions: for activity at 1 µM: read-out: SMRT2β, relative % activity at 1 μM
LXR [5] = assay: Multiplex precision CRT (pCRT), SRC1 and NCOR2, LXR isoform not specified; assay type: biochemical; conditions: pCRT versus monoplex CRT
C57Bl/6 mice = system: C57Bl/6 mice; set-up: method as in Miao et al., 2004; conditions: ref Miao et al., 2004, cited from earlier work
cynomolgus monkeys = system: cynomolgus monkeys; set-up: method as in Groot et al., 2005; conditions: ref Groot et al., 2005; cited from earlier work
PXR = target: T3, PXR (Homo sapiens, UniProt O75469); assay: Coactivator SRC1-4 recruitment Lanthascreen PXR; assay type: biochemical; conditions: benchmark SR12813
T3 sequence (O75469 146-433 limits assumed): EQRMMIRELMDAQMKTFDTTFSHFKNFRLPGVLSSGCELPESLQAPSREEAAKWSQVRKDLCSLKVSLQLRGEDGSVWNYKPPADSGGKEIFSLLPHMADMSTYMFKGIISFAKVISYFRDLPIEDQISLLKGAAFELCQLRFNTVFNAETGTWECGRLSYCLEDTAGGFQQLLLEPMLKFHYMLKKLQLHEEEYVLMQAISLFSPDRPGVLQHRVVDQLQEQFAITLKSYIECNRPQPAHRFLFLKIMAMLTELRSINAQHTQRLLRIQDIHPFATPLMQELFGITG

LXRβ [6] = target: T2, LXRβ; assay: SRC-1 coactivator recruitment to LXRβ, coregulator TR-FRET (CRT); assay type: biochemical; set-up: The CRT selectivity assay incorporates GST-tagged LXR-LBD; purchased Thermo Fisher Scientific PV4660
Hamsters = system: Hamsters; set-up: method as in Groot et al., 2005; conditions: ref Groot et al., 2005; cited from earlier work
LXRα [7] = target: T1, LXRα; assay: NCOR2 corepressor binding to LXRα, CRT; assay type: biochemical; set-up: The CRT selectivity assay incorporates GST-tagged LXR-LBD; purchased Thermo Fisher Scientific PV4657; conditions: for activity at 1 µM: ligand 1 µM, interpolated from concentration-response, normalized, heat map Figure 9A, read-out: NCOR2α, relative % activity at 1 μM; for Effect on NCOR2 binding to LXRα: monoplex CRT, absence of SRC1
RXRα = target: T4, RXRα (Homo sapiens, UniProt P19793); assay: Coactivator D22 recruitment Lanthascreen RXRα; assay type: biochemical; conditions: normalized to SR11237
T4 construct: the reductionist system of NR-LBD with short coregulator peptides as used in the present work; purchased Thermo Fisher Scientific PV4799

mice = system: mice; set-up: method as in Kick et al., 2015; Kirchgessner et al., 2015; conditions: highest dose 30 mg/kg qd, ref Kick et al., 2015, Kirchgessner et al.; cited from earlier work
[8] = system: sterol response element (SRE); assay: SRE-luc reporter assay in HepG2 cells; assay type: cell-based, human
Text: Our phenotypic high-throughput screen (HTS) approach to identify nonlipogenic ABCA1 Inducers (NLAI) originally used counterscreening with a SREBP1c-luciferase reporter (linked to the SREBF1 gene promoter) in human hepatocarcinoma HepG2 cells ([Ben Aissa et al., 2021]). Unwanted lipogenesis is mediated by LXR agonists via direct transcriptional activation and indirectly by the effects of SREBP1c ([Schultz et al., 2000]; [Brown and Goldstein, 1997]). SREBP1c enhances transcription of genes required for synthesis of fatty acids and TG and as the dominant isoform in liver is associated most closely with lipogenesis and TG elevation ([Brown and Goldstein, 1997]). […] Binding of SREBP1c to the sterol response element (SRE) induces transcription of lipogenic genes associated with elevated TG. To better model the lipogenic axis in hepatocytes, we use HepG2 cells stably transfected with a nanoluciferase reporter downstream of a SRE promoter (SRE-luc), activation of which requires SREBP1c maturation.
HepG2 cells were cotransfected with SRE (LDLR)-NlucP SuperPiggyBac Transposon and a separate Transposase plasmid (System Biosciences). Cells were expanded for multiple passages followed by selection with puromycin (1 μg/ml). Stable cells constitutively express GFP allowed for FACS enrichment and/or cell cloning. Initially, stable pools were compared to low expressing and high expressing enriched pools. The optimal pool was selected based on assay performance (Z’) and was grown and maintained as above, with the addition of 1.0 μg/mL of puromycin biweekly.
Cells were split into flasks containing CS medium (EMEM supplemented with 10% charcoal stripped FBS (Gibco A52567-01)) and 1% P/S and grown at 37 °C /5% CO2 for 48 hr before plating. Cells were plated in 384-well, white clear tissue culture plates (Greiner 781098) and allowed to grow at 37 °C /5% CO2 for 24 hr before medium was aspirated and compound dilutions prepared in CS medium were added. Following a 24 hr incubation, the medium was aspirated, and cells were lysed/luminescence quantified using the Nano-Glo Luciferase Assay System (Promega N1130).

LXR [9] = assay: Corepressor (NCOR2, SMRT2) binding to LXR, CRT, statements across isoforms; assay type: biochemical; conditions: monoplex CRT, absence of coactivator
[10] = ligand 1 µM, interpolated from concentration-response, normalized, heat map Figure 9A

T4 sequence (P19793 227-458 limits assumed): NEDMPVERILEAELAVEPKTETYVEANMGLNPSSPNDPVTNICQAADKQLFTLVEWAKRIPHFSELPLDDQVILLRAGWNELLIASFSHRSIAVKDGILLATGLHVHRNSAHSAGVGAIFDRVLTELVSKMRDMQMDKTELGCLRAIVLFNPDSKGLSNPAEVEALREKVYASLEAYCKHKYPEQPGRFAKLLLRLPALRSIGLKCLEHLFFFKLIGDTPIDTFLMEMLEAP

activity at 1 µM (LXRα [1]): 92.4%
activity at 1 µM (LXRβ [2]): 92.3%
activity at 1 µM (LXRβ [4]): 92.5%
Left-shift in the NCOR2 displacement curve in presence of SRC1 (LXR [5]): 100 fold
PXR agonism/binding in CRT (PXR): no binding to PXR
SRC1β, relative % activity at 1 μM (LXRβ [6]): 95.64%
activity at 1 µM (LXRα [7]): 99.1%
SMILES: O=C(O)Cc1cccc(OCCCN(Cc2cccc(C(F)(F)F)c2Cl)CC(c2ccccc2)c2ccccc2)c1 [GW3965]
Effect on NCOR2 binding to LXRβ (LXRβ [2]): displacement of NCOR2 from both LXR isoforms
Recruitment of NCOR1 to LXRα (LXRα [3]): Weak recruitment of NCOR1 to LXRα
Liver weight and TGs (C57Bl/6 mice; 3 days treatment, GW3965 even at 100 mg/kg/day): no effect on these liver markers
SREBP1c and FAS expression in the liver (C57Bl/6 mice; 3 days treatment): minimal increases in SREBP1c and FAS expression in the liver
ABCA1 expression in peripheral macrophages (C57Bl/6 mice): sevenfold
ABCA1 expression in the small intestine (C57Bl/6 mice): eightfold
Plasma LDL, HDL and TG (cynomolgus monkeys): increased LDL and HDL at 7 days treatment only, with no effect on TG
Plasma TG, LDL-C and VLDL-C (Hamsters): dose-dependent increase
Effect on NCOR2 binding to LXRα (LXRα [7]): displacement of NCOR2 from both LXR isoforms

SMILES: CC1(C)CCC(C)(C)c2cc(C3(c4ccc(C(=O)O)cc4)OCCO3)ccc21 [SR11237]
RXRα CRT response (RXRα): RXRα-selective full agonists

activity at 1 µM (LXRα [1]): 97%
activity at 1 µM (LXRβ [2]; [10]): 107%
activity at 1 µM (LXRβ [4]; [10]): 102%
Effect on SMRT2 binding to LXRβ (LXRβ [4]; monoplex CRT): did not perturb SMRT2 binding to LXRβ
activity at 1 µM (LXRα [7]): 100%
SMILES: CC(C)(O)c1cn(-c2ccc(-c3cccc(S(C)(=O)=O)c3)cc2)c(C(C)(C)c2ccccc2Cl)n1 [XL652]
Effect on SMRT2 binding to LXRα (LXRα [1]; monoplex CRT): stabilization of SMRT2 corepressor binding to LXRα
Effect on NCOR2 binding to LXRβ (LXRβ [2]): weakly destabilized the NCOR2 complex with both LXR isoforms
Plasma TGs (mice): elevated plasma TGs only at the highest dose
SRE activation response/phenotype in HepG2 [8]: little or no activation of SRE at submicromolar concentrations
Efficacy of SRE activation at concentrations ≤1 µM ([8]; concentrations ≤1 µM): 20–25 % of T0
Corepressor (NCOR2, SMRT2) displacement or stabilization, across LXR isoforms (LXR [9]): strongly stabilized the corepressor-bound conformation
Effect on NCOR2 binding to LXRα (LXRα [7]): weakly destabilized the NCOR2 complex with both LXR isoforms
